In ChEMBL document CHEMBL5325479, “Synthesis and biological evaluation of sulfonylpyridine derivatives as potential anti-chlamydia agents” (Bioorg Med Chem, 2023):
In brackets after ≈: the same amount, converted by molar mass. Activity calls are given as the source filed them. The rule behind the calls is not given here.

System: HEp-2
Test: Cytotoxicity against human HEp-2 cells assessed as cell viability at 4 to 128 ug/ml measured after 24 hrs by XTT assay
Format: toxicity, cell-based
Settings: hep-2, 24 h, dose 4-128 µg/ml
With `CC(C)(C(=O)NCCCSc1ccc(Cl)cc1)S(=O)(=O)c1ccc(Br)cn1` the Activity was “Toxic”.

System: Staphylococcus aureus
Test: Antibacterial activity against Staphylococcus aureus USA 300 JE2 assessed as bacterial death measured upto 256 ug/ml
Format: functional, organism-based
Settings: dose <= 256.0 µg/ml
In the case of `CC(C)(C(=O)NCCCSc1ccc(Cl)cc1)S(=O)(=O)c1ccc(Br)cn1`, the Activity is reported as “inactive”.

System: Escherichia coli
Test: Antibacterial activity against Escherichia coli K12 assessed as bacterial death measured upto 256 ug/ml
Format: functional, organism-based
Settings: dose <= 256.0 µg/ml
With `CC(C)(C(=O)NCCCSc1ccc(Cl)cc1)S(=O)(=O)c1ccc(Br)cn1` the Activity was “inactive”.

System: Chlamydia trachomatis
Test: Anti-chlamydia activity against Chlamydia trachomatis serovar L2 infected in human HEp-2 cells assessed as inhibition of inclusion growth measured treated 8 hrs POI followed measured after 16 hrs by immunofluorescence assay
Format: functional, organism-based
Settings: serovar L2, HEp-2
Molecule `CC(C)(C(=O)NCCCOc1ccc(Cl)cc1)S(=O)(=O)c1ccc(C(F)(F)F)cn1` has an IC50 of 26.1 µg/mL (≈ 56.2 µM). Work on `Cc1ccc(SCCNC(=O)C(C)(C)S(=O)(=O)c2ccc(C(F)(F)F)cn2)cc1` yielded an IC50 of 23.5 µg/mL (≈ 52.6 µM). Work on `Cc1ccccc1OCCNC(=O)C(C)(C)S(=O)(=O)c1ccc(C(F)(F)F)cn1` yielded an IC50 of 28.9 µg/mL (≈ 67.2 µM). For `Cc1ccccc1OCCNC(=O)C(C)(C)S(=O)(=O)c1ccc(Br)cn1`, the IC50 was 18.3 µg/mL (≈ 41.5 µM). In the case of `Cc1ccccc1SCCCNC(=O)C(C)(C)S(=O)(=O)c1ccc(C(F)(F)F)cn1`, the IC50 is reported as 32.5 µg/mL (≈ 70.7 µM). Molecule `CC(C)(C(=O)NCCNc1ccccc1)S(=O)(=O)c1ccc(Br)cn1` has an IC50 of 11.7 µg/mL (≈ 27.3 µM). With `Cc1ccccc1SCCNC(=O)C(C)(C)S(=O)(=O)c1ccc(C(F)(F)F)cn1` the IC50 was 17.8 µg/mL (≈ 39.8 µM). Molecule `CC(C)(C(=O)NCCCSc1ccccc1)S(=O)(=O)c1ccc(C(F)(F)F)cn1` has an IC50 of 31.4 µg/mL (≈ 70.3 µM). `Cc1ccc(OCCNC(=O)C(C)(C)S(=O)(=O)c2ccc(C(F)(F)F)cn2)cc1` showed an IC50 of 29.8 µg/mL (≈ 69.3 µM). For `Cc1ccccc1OCCCNC(=O)C(C)(C)S(=O)(=O)c1ccc(Br)cn1`, the IC50 was 3.47 µg/mL (≈ 7.62 µM). With `CC(C)(C(=O)NCCNc1ccccc1)S(=O)(=O)c1ccc(C(F)(F)F)cn1` the IC50 was 14.2 µg/mL (≈ 34.3 µM). In the case of `Cc1ccccc1OCCCNC(=O)C(C)(C)S(=O)(=O)c1ccc(C(F)(F)F)cn1`, the IC50 is reported as 20.4 µg/mL (≈ 46 µM). For `CC(C)(C(=O)NCCCSc1ccc(Cl)cc1)S(=O)(=O)c1ccc(Br)cn1`, the IC50 was 2.33 µg/mL (≈ 4.74 µM). Work on `Cc1ccc(SCCCNC(=O)C(C)(C)S(=O)(=O)c2ccc(Br)cn2)cc1` yielded an IC50 of 16.1 µg/mL (≈ 34.2 µM). Work on `COc1ccc(OCCNC(=O)C(C)(C)S(=O)(=O)c2ccc(C(F)(F)F)cn2)cc1` yielded an IC50 of 42.2 µg/mL (≈ 94.4 µM). `CC(C)(C(=O)NCCSc1cccc(Cl)c1)S(=O)(=O)c1ccc(C(F)(F)F)cn1` showed an IC50 of 17.9 µg/mL (≈ 38.3 µM). `CC(C)(C(=O)NCCCSc1ccc(Cl)cc1)S(=O)(=O)c1ccc(C(F)(F)F)cn1` gave an IC50 of 3.88 µg/mL (≈ 8.07 µM). Molecule `CC(C)(C(=O)NCCCSc1cccc(Cl)c1)S(=O)(=O)c1ccc(C(F)(F)F)cn1` has an IC50 of 14.8 µg/mL (≈ 30.7 µM). With `COc1ccccc1OCCNC(=O)C(C)(C)S(=O)(=O)c1ccc(C(F)(F)F)cn1` the IC50 was 39.8 µg/mL (≈ 89.2 µM).

System: not listed separately
Test: Stability of the compound in simulated gastric fluid at pH 1.2 measured after 24 hrs by HPLC analysis
Format: ADME
Settings: simulated gi fluid, pH 1.2, 24 h
For `CC(C)(C(=O)NCCCSc1ccc(Cl)cc1)S(=O)(=O)c1ccc(Br)cn1`, the Stability was “Stable”.

System: not listed separately
Test: Cytotoxicity against human HEC-1-A cells assessed as cell survival at 128 ug/ml measured after 24 hrs by XTT assay
Format: toxicity, cell-based
Settings: at 128 µg/mL, read-out: Survival
In the case of `CC(C)(C(=O)NCCCSc1ccc(Cl)cc1)S(=O)(=O)c1ccc(Br)cn1`, the viability at 24 h, 128 ug/ml is reported as 100%.

System: Chlamydia trachomatis
Test: Anti-chlamydia activity against Chlamydia trachomatis serovar L2 infected in human HEp-2 cells assessed as inhibition of inclusion growth measured at 0.78 to 50 ug/ml treated 8 hrs POI followed measured after 16 hrs by immunofluorescence assay
Format: functional, organism-based
Settings: dose 0.78-50 µg/ml
For `CN(CCSc1ccc(Cl)cc1)C(=O)C(C)(C)S(=O)(=O)c1ccc(C(F)(F)F)cn1`, the inhibition was “inactive”. In the case of `CC(C)(C(=O)NCCc1ccncc1)S(=O)(=O)c1ccc(C(F)(F)F)cn1`, the inhibition is reported as “inactive”. For `Cc1ccc(OCCNC(=O)C(C)(C)S(=O)(=O)c2ccc(Br)cn2)cc1`, the inhibition was “inactive”. For `CC(C)(C(=O)NCCOc1ccc([N+](=O)[O-])cc1)S(=O)(=O)c1ccc(C(F)(F)F)cn1`, the inhibition was “inactive”. For `COc1ccccc1OCCCNC(=O)C(C)(C)S(=O)(=O)c1ccc(C(F)(F)F)cn1`, the inhibition was “inactive”. With `CC(C)(C(=O)NCCCC1=NC2C=CC=CC2=N1)S(=O)(=O)c1ccc(C(F)(F)F)cn1` (stereo unspecified) the inhibition was “inactive”. With `CC(=O)N(CCNC(=O)C(C)(C)S(=O)(=O)c1ccc(C(F)(F)F)cn1)c1ccccc1` the inhibition was “inactive”.
